From patent US20090203892A1, “Retrotransposon Inhibition in Therapy” (ISTITUTO SUPERIORE DI SANITA, priority 2004, published 2009)

Columns and labels:
[1] = system: A-375 melanoma; test: Cell growth under prolonged exposure to RT inhibitors; format: cell-based, Human; conditions: for reversibility of growth inhibition: after removal of RT inhibitors, within one or two 96 h-cycles; for cell growth: nevirapine 350 μM, efavirenz 15 μM, five 96 h-cycles
Procedure: (§1) Human A-375 melanoma (ATCC-CRL-1619), TVM-A12 primary melanoma-derived (20), HT29 adenocarcinoma (ATCC HTB-38), H69 small cell lung carcinoma (SCLC) (ATCC HTB119), and PC3 prostate carcinoma (ATCC CRL-1435) cell lines were seeded in six-well plates at a density of 10^4 to 5×10^4 cells/well and cultured in DMEM or RPMI1640 medium with 10% fetal bovine serum. Nevirapine and Efavirenz were purified from commercially available Viramune (Boehringer-Ingelheim) and Sustiva (Bristol-Myers Squibb) as described (18). The drugs were made 350 and 15 μM in dimethyl sulfoxide (DMSO, Sigma-Aldrich), respectively, and added to cells 5 h after seeding; the same DMSO volume (0.2% final concentration) was added to controls. Fresh RT inhibitor-containing medium was changed every 48 h. Cells were harvested every 96 h, counted in a Burker chamber (two countings/sample) and replated at the same density.

[2] = system: PC3 prostate carcinoma; test: as above; format: cell-based, Human; conditions: for reversibility of growth inhibition: after removal of RT inhibitors, within one or two 96 h-cycles; for cell growth: nevirapine 350 μM, efavirenz 15 μM, five 96 h-cycles
Procedure: as §1

[3] = system: TVM-A12 primary melanoma-derived cell line; test: as above; format: cell-based, Human; conditions: for reversibility of growth inhibition: after removal of RT inhibitors, within one or two 96 h-cycles; for cell growth: nevirapine 350 μM, efavirenz 15 μM, five 96 h-cycles
Procedure: as §1

[4] = system: A-375 melanoma cells; test: Morphological differentiation (phase contrast, SEM, confocal microscopy); format: cell-based, Human; conditions: compared to DMSO-treated controls
Procedure: (§2) A-375 and TVM-A12 cells were fixed with 4% para-formaldehyde for 10 min and permeabilized in 0.2% Triton-X 100 in PBS for 5 min. […] Confocal sections were taken at 0.5-1 μm intervals. A-375 and TVM-A12 cells were fixed in 2.5% glutaraldehyde in 0.1 M Millonig's phosphate buffer. After washing, cells were post-fixed with 1% OsO4 (1 h, 4° C.) in MPB and dehydrated using increasing acetone concentrations. Samples were critical-point dried using liquid CO2 and sputter-coated with gold before examination on a Stereoscan 240 scanning electron microscope (Cambridge Instr., Cambridge, UK).

[5] = system: E-cadherin, c-myc, bcl-2 and cyclin D1 genes in A-375 melanoma cells; test: Gene expression by semiquantitative RT-PCR in RT-inhibited cultures; format: cell-based, Human; conditions: four cycles, compared to controls
Procedure: Each oligo pair was used in sequential amplification series with increasing numbers (25 to 40) of cycles. PCR products were electrophoresed, transferred to membranes and hybridized for 16 h at 42 C.° with [^32P]γ-ATP end-labelled internal oligonucleotides. The intensity of the amplification signal was measured by densitometry in at least three independent experiments for each gene. [table] […] This was investigated in semiquantitative RT-PCR analysis of cultures treated with DMSO only, or nevirapine or efavirenz for four cycles. In A-375 melanoma cells, we focussed on a set of four genes: the E-cadherin gene, involved in cell-cell adhesion and expressed in differentiated but not in tumor cells (24); and the c-myc, bcl-2 (25) and cyclin D1 (26) genes, which are directly implicated in melanoma cell proliferation and tumor growth.

[6] = system: A-375 melanoma xenograft; test: Human tumor xenograft growth in athymic nude mice; format: in vivo; conditions: 20 mg/kg s.c. daily five days a week, start one day or one week after inoculation; vs untreated
Procedure: (§3) Controls were injected with 50% DMSO.

[7] = system: H69 small cell lung carcinoma xenograft; test: Human tumor xenograft growth in athymic nude mice; format: in vivo; conditions: 20 mg/kg s.c. daily five days a week, start one day or one week after inoculation; vs untreated
Procedure: as §3

[8] = system: HT29 colon xenograft; test: Human tumor xenograft growth in athymic nude mice; format: in vivo
Procedure: as §3

[9] = system: PC3 xenograft; test: Human tumor xenograft growth in athymic nude mice; format: in vivo
Procedure: as §3

[10] = Procedure: Five-week old athymic nude mice (Harlan, Italy), kept in accordance with the European Union guidelines, were inoculated sub-cutaneously with A-375 melanoma (4×10^6), H-69 (10^7), PC3 (2×10^6) and HT-29 (10^6) cells in 100 μl PBS. […] Controls were injected with 50% DMSO. Treatment started one day or one week after tumor implant, and, in some experiments, was discontinued after 14 days. Tumor growth was monitored every other day by caliper measurements; volumes were calculated using the formula: […]
Cells were inoculated subcutaneously in the limb of athymic nude mice.

[11] = Preliminary in vivo assays of RT inhibitors
[12] = system: PC3 prostate cancer cells; test: Tumorigenicity of efavirenz-pretreated PC3 cells inoculated in nude mice; format: in vivo
Procedure: as §3
We also investigated whether pretreatment of transformed cells with efavirenz would modify the tumorigenic potential of derived xenografts. PC3 prostate cancer cells were cultured with 20 μM efavirenz for two 96 h-cycles, a time that was sufficient for induction of the PSA and AR genes (FIG. 3B), and subsequently inoculated in nude mice.
Untreated cells were inoculated in parallel batches of animals. Efavirenz-pretreated, or untreated, PC3 cell xenografts were then either continuously treated with efavirenz in vivo or were left untreated. […] As summarized in FIG. 6 B, efavirenz-pretreated PC3 cells developed slowly-growing xenografts in 65% of the inoculated animals, compared to 100% using untreated cells. […] Thus, efavirenz attenuates the tumorigenic potential of transformed cells.

[13] = system: endogenous RT; conditions: non-infected cells in vitro (ref. 19); cited from earlier work
[14] = system: primary TVM-A12 cells; test: Morphological differentiation (phase contrast, SEM, confocal microscopy); format: cell-based, Human; conditions: compared to untreated cells
Procedure: as §2

[15] = 20 mg/kg s.c. daily five days a week, start one day or one week after inoculation, vs untreated
[16] = treated from day one, treatment discontinuation after day 15

SMILES | reversibility of growth inhibition [1] | cell growth [1] | reversibility of growth inhibition [2] | cell growth [2] | reversibility of growth inhibition [3] | cell growth [3] | morphological differentiation [4] | inhibition of the enzymatic activity of the endogenous RT [13] | also measured
O=C1Nc2ccc(Cl)cc2[C@@](C#CC2CC2)(C(F)(F)F)O1 [efavirenz, Efavirenz] | reversible | effectively reduce cell growth | reversible | effectively reduce cell growth | reversible | effectively reduce cell growth | became evident within four-five days | inhibit the enzymatic activity of the endogenous RT | expression of the cyclin D1 gene [5]: failed to down-regulate cyclin D1 expression; tumor growth [6]: markedly reduced; tumor growth [7]: markedly reduced; tumor growth [8, 15]: markedly reduced; reversibility of inhibition of tumor growth [8, 16]: reversible in vivo; tumor growth [9, 15]: markedly reduced; reversibility of inhibition of tumor growth [9, 16]: reversible in vivo; animal death or signs of toxicity ([10]; 4 to 40 mg/kg, all animal groups): no animal death or explicit signs of toxicity in any of the groups; animals with significant decrease of body weight ([10]; group treated with 40 mg/kg): more than 60 % of animals; in vivo effectiveness relative to nevirapine [11]: higher in vivo effectiveness than nevirapine; inoculated animals developing xenografts ([12]; cells pretreated with 20 μM efavirenz for two 96 h-cycles, no treatment in vivo, 100% using untreated cells, 30 days): 65 % of the inoculated animals; xenograft growth ([12]; efavirenz-pretreated cells, no treatment in vivo): xenografts grew more slowly; xenograft growth ([12]; pretreated cells and further treated with efavirenz in vivo): the growth curve was flat; animals developing a tumor ([12]; pretreated cells and further treated with efavirenz in vivo, 30 days): 40 % of the animals
Cc1ccnc2c1NC(=O)c1cccnc1N2C1CC1 [nevirapine, Nevirapine] | reversible | effectively reduce cell growth | reversible | effectively reduce cell growth | reversible | effectively reduce cell growth | became evident within four-five days | inhibit the enzymatic activity of the endogenous RT | morphological differentiation [14]: formed instead typical branched dendrites
